# Assay results reported in patent US11292786B2, “Pyrimidine compounds and pharmaceutical compositions for preventing or treating cancers including the same” (HANMI PHARM. CO., LTD., priority 2018, dated 2022).
# Columns and labels:
# [1] = Microsomal stability, human liver microsomes; type: in vitro ADME; conditions: residual amount % after 1 hour at 37° C., 5 μM, 1 mg/ml human liver microsomes, NADPH regenerating system
# Protocol: To confirm the reactivity of the test substances with intra-hepatic CYP450 enzymes, 5 μM test substances and 1 mg/ml human liver microsomes were incubated for 1 hour at a temperature of 37° C. in the presence of an NADPH regenerating system. After 1 hour, acetonitrile was added to terminate the reaction, and the supernatant obtained by centrifugation was analyzed by HPLC. The remaining amount % was calculated using the following equation using the value of the reacted sample for 1 hour relative to the value of the 0-minute sample as the peak value obtained as an analysis result. (Peak value of the sample reacted for 1 hour/peak value of the sample at 0 minutes)×100=residual amount %.
# [2] = Microsomal stability, mice microsomes; type: in vitro ADME; conditions: residual amount % after 1 hour at 37° C., 5 μM, NADPH regenerating system
SMILES,Human microsomal stability (%) [1],Mice microsomal stability (%) [2]
CCN(CC)C1CCN(c2cc(Nc3ncc(Cl)c(-c4c[nH]c5cc(C)ccc45)n3)cc(C3CC3)c2)CC1 [Control Compound 6],49%,29%
"Cc1ccc2c(-c3nc(Nc4cc(CN5C[C@@H](C)NC6(CC6)C5)cc(C5CC5)c4)ncc3Cl)c[nH]c2c1 [Example 27, (R)-5-chloro-N-(3-cyclopropyl-5-((5-methyl-4,7-diazaspiro[2.5]octan-7-yl)methyl)phenyl)-4-(6-methyl-1H-indole-3-yl)pyrimidine-2-amine]",72%,69%
